Reference: patent US6515124B2, “Dehydroamino acids” (Hoffman-La Roche Inc., priority 2000, dated 2003)

What was measured:
[1] = target: T1, LFA-1 binding to immobilized ICAM-1 (Homo sapiens, UniProt P05107+P20701); assay: LFA-1/ICAM-1 Protein-Protein Assay (solid-phase ELISA); conditions: 5dICAM-Ig coated plates, membrane-bound LFA-1 from transfected 293 cells
T1 construct: made in house; host or cells: transfected 293 cells (LFA-1)
Protocol: LFA-1/ICAM-1 Protein-Protein Assay
LFA-1/ICAM-1 antagonist activity, defined as the ability to block LFA-1 binding to immobilized ICAM-1, was quantitated using a solid-phase ELISA. Typically, fusion protein consisting of the entire extracellular domain of human ICAM-1 and the Fc domain of human IgG (5dICAM-Ig) was coated onto 96-well microtiter plates (0.15 μg in 100 μL PBS) overnight at 4° C. The plates were then blocked with 150 μL of 1% BSA/1 mM MnCl2/0.14 M NaCl/20 mM HEPES, pH 7.2 for 1 h at 37° C. and washed 3 times (150 μL each) with Wash Buffer (50 mM Tris, pH 7.4/100 mM NaCl/1 mM MnCl2/0.05% Tween 20). Stock solutions (100 μM in 100% DMSO) of test compounds were diluted 50 fold with 150 μL of Binding Buffer (0.05% BSA/0.05% Tween 20/1 mM MnCl2/0.14 M NaCl/20 mM HEPES, pH 7.2) plus 10% DMSO. A series of 1:4 dilutions were performed to achieve a concentration range of 0.12 nM-2 μM. Fifty μL per well of each dilution was added to the ICAM-1 coated plates, followed by 50 μL per well of membrane-bound LFA-1 (280 ng/mL in Binding Buffer) derived from transfected 293 cells. The plates were shaken vigorously for 1 min (room temperature) and gently for 2 h (37° C.). After incubation, the plates were washed 3 times (150 μL each) with Wash Buffer. Mouse anti-human integrin β2 monoclonal antibody was added (100 μL/well, 1 μg/ml in Binding Buffer) and allowed to incubate for 1 h (37° C.) with gentle agitation. The plates were then washed 3 times with Wash Buffer. HRP-conjugated goat anti-mouse IgG (100 μL/well, 1:1500 dilution in Binding Buffer) was added to each well, followed by incubation for 1 h (37° C.) and concluded by three washes (150 μL each) with Wash Buffer. TMB solution (100 μL per well) was added for color development (10 min). The reaction was stopped by the addition of 100 μL of 1M H3PO4 to each well. The plates were then read at 450 nm.

[2] = tested on: T lymphocyte proliferation (murine spleen cells); assay: Mixed Lymphocyte Reaction (MLR), one-way; assay type: cell-based, mice; conditions: C57B1/6 spleen cells with irradiated BALB/c spleen cells, tritiated thymidine incorporation, 3 days
Description: Mixed Lymphocyte Reaction (MLR)
Admixture of murine spleen cells from two different inbred strains of mice induces proliferation of T lymphocytes. The magnitude of T cell proliferation depends on the extent of disparity in the major histocompatibility antigens between the two strains. Splenic T lymphocytes from both strains proliferate due to alloantigen recognition, a process for which the interaction of ICAM-1 on antigen-presenting cells with LFA-1 on lymphocytes is necessary. The ability of antagonists to inhibit T lymphocyte proliferation following recognition of alloantigens was assessed in a one-way MLR, where cells from one strain were irradiated to permit measurement of the proliferative response of cells from the other strain. Spleen cells were washed three times in tissue culture medium (TCM; see below). Fifty microliters of a spleen cell suspension (prepared at 10×10^6 cells/ml in TCM) obtained from C57B1/6 mice were added to an equal number of lethally-irradiated (2000 rads) spleen cells obtained from BALB/c mice in a 96-well U-bottom tissue culture plate (Costar, 3799). One hundred microliters of serial dilutions of antagonists or TCM were added to the spleen cell mixture. The total volume in each well was 200 μL. TCM was RPMI1640 containing 10% heat-inactivated fetal bovine serum, […] L-glutamine, 100 Units/ml each of penicillin and streptomycin and 5×10^−5 M 2-mercaptoethanol. Dilutions of antagonists were prepared in TCM. Plates were incubated in 5% CO2 for 3 days. On the third day, 0.5 μCi of tritiated thymidine (10 μCi/mL) was added to all the wells. Cells were harvested 6 h later on a 96-well plate harvester and the amount of tritiated thymidine incorporated was assessed in a liquid scintillation counter.

[3] = Mus musculus, T-lymphocyte, light or radiation study, 72 h

T1 sequence (P20701 26-1170): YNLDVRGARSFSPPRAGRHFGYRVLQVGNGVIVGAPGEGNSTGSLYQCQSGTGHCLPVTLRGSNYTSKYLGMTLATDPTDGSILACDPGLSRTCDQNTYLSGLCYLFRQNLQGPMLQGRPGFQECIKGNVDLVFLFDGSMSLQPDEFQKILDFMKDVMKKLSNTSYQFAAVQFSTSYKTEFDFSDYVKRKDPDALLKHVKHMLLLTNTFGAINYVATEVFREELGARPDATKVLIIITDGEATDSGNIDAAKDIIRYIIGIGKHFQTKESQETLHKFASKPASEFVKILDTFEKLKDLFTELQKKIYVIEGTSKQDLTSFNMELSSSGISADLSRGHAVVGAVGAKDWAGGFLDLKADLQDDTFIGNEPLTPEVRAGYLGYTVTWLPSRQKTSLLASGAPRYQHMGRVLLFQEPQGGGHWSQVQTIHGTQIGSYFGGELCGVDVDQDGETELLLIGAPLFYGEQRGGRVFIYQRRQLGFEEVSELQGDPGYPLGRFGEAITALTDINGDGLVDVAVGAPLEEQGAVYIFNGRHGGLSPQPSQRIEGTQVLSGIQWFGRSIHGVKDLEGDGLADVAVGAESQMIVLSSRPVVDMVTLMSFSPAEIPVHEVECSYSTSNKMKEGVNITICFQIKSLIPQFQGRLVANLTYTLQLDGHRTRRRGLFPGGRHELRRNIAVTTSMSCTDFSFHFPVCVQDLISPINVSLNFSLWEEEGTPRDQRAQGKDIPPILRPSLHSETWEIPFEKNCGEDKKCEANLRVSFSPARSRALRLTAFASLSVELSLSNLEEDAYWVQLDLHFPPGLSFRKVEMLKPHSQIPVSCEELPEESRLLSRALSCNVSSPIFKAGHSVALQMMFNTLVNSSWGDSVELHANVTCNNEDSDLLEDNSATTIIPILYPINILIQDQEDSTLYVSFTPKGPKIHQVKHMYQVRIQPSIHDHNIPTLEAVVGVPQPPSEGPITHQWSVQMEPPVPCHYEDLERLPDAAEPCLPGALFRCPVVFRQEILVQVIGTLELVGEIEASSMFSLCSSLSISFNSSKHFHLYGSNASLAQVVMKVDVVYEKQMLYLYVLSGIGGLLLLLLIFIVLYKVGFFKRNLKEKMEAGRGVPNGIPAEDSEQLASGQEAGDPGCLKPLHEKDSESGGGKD
T1 sequence (P05107 23-769): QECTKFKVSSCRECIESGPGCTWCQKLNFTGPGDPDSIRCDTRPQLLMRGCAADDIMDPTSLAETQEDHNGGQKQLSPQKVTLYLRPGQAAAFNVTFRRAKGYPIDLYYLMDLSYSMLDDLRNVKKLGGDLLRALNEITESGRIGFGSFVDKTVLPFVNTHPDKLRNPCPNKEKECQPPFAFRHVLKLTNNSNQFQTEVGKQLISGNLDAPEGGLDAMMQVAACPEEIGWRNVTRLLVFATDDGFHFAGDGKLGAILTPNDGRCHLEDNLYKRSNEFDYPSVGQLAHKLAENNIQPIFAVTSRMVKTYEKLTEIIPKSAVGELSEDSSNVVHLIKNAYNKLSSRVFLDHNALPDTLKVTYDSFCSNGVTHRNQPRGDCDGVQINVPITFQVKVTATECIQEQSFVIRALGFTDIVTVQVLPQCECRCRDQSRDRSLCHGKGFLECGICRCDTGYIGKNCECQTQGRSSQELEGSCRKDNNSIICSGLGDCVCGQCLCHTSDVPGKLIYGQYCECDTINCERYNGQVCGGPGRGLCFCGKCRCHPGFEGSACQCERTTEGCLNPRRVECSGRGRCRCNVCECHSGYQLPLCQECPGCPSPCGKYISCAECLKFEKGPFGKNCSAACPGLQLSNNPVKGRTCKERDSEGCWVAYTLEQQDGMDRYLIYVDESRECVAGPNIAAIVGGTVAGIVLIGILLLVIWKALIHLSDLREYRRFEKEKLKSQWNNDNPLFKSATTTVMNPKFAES

SMILES	IC50 [1] [nM]	IC50 [2, 3] [nM]	also measured
O=C(O)/C(=C/c1ccc2ncsc2c1)NC(=O)c1ccc(C(=O)NCc2cccc(O)c2)cc1Cl [Example 245]	0.94	1380	
O=C(O)/C(=C/c1ccc2ccccc2c1)NC(=O)c1ccc(C(=O)NCc2cccc3[nH]ccc23)cc1Cl [Example 307]	18.6	27000	
Cc1nc(C)c(/C=C(\NC(=O)c2ccc(C(O)CCc3cccc(O)c3)cc2Cl)C(=O)O)s1 (racemic) [Example 297, rac.-(Z)-2-[[2-Chloro-4-[1-hydroxy-3-(3-hydroxyphenyl)propan-1-yl]benzoyl]amino]-3-(2,4-dimethylthiazol-5-yl)propenoic Acid]	5.96	5700	
Cc1cc(C(=O)N[C@H](C)c2cccc3ccccc23)cc(C)c1C(=O)N/C(=C\c1ccccc1)C(=O)O [Example 237]	27	20000	
O=C(O)/C(=C/c1ccccc1O)NC(=O)c1ccc(C(=O)NCc2cccc3[nH]ccc23)cc1Cl [Example 309]	18.7	14500	
O=C(O)/C(=C/c1ccc2[nH]nnc2c1)NC(=O)c1ccc(C(=O)NCc2cccc(O)c2)cc1Br [Example 285]		235	IC50 ([1]; disodium salt): 1.14 nM; IC50 ([1]; trifluoroacetate salt): 0.34 nM; IC50 ([2]; listed as 285^c): 190 nM
Cc1nc(C(C)C)c(/C=C(\NC(=O)c2ccc(C(=O)NCc3cccc(O)c3)cc2Br)C(=O)O)s1 [Example 259]	8.14		
O=C(O)/C(=C/C1CCCNC1)NC(=O)c1ccc(C(=O)NCc2cccc(O)c2)cc1Br (racemic) [Example 318]	171		
O=C(O)/C(=C/c1cnc2ccccc2c1)NC(=O)c1ccc(C(=O)NCc2cccc(O)c2)cc1Br [Example 277]	0.53	356	
O=C(O)/C(=C/c1csc2ccccc12)NC(=O)c1ccc(C(=O)NCc2cccc(O)c2)cc1Br [Example 264]	4.2	13000	
O=C(O)/C(=C/c1ccccn1)NC(=O)c1ccc(C(=O)NCc2cccc(O)c2)cc1Br [Example 273]	5.4	1400	
COc1ncc(/C=C(\NC(=O)c2ccc(C(=O)NCc3cccc(O)c3)cc2Br)C(=O)O)c(OC)n1 [Example 284]	12.6		
O=C(O)/C(=C/C1CCNCC1)NC(=O)c1ccc(C(=O)NCc2cccc(O)c2)cc1Br [Example 319]	72		
O=C(O)/C(=C/CC1CCCCN1)NC(=O)c1ccc(C(=O)NCc2cccc(O)c2)cc1Br (racemic) [Example 320]	140		
O=C(O)/C(=C/c1cccs1)NC(=O)c1ccc(C(=O)NCc2cccc(O)c2)cc1Br [Example 271]	33		
Cc1cc(C(=O)NCc2cc(F)cc(F)c2)cc(C)c1C(=O)N/C(=C\c1[nH]cnc1C)C(=O)O [Example 250, (Z)-2-[[4-[[(3,5-Difluorobenzyl)amino]carbonyl]-2,6-dimethylbenzoyl]amino]-3-(4-methyl-1H-imidazol-5-yl)propenoic Acid]	37		
O=C(O)/C(=C/c1cnnc2ccccc12)NC(=O)c1ccc(C(=O)NCc2cccc(O)c2)cc1Br [Example 265]	124		
Cc1cc(C(=O)N[C@H](C)c2cccc3ccccc23)cc(C)c1C(=O)N/C(=C\c1ccncc1)C(=O)O [Example 238]	16.7		
CCc1nc(C(C)C)c(/C=C(\NC(=O)c2ccc(C(=O)NCc3cccc(O)c3)cc2Cl)C(=O)O)s1 [Example 303, (Z)-2-[[2-Chloro-4-[[3-(3-hydroxybenzyl)amino]carbonyl]benzoyl]amino]-3-[2-ethyl-4-(1-methylethyl)thiazol-5-yl]propenoic Acid]	190		
C[C@@H](NC(=O)c1cc(Cl)c(C(=O)N/C(=C\c2ccc3[nH]nnc3c2)C(=O)O)c(Cl)c1)c1cccc2ccccc12 [Example 242]	22		
CC(C)c1csc(/C=C(\NC(=O)c2ccc(C(=O)NCc3cccc(O)c3)cc2Br)C(=O)O)n1 [Example 256]	279		
O=C(O)/C(=C/c1ccoc1)NC(=O)c1ccc(C(=O)NCc2cccc(O)c2)cc1Br [Example 243]	13.2		

More lines, main results first:

IC50 [1] [nM]	SMILES	IC50 [2, 3] [nM]	also measured
0.4	Cc1cc(C(=O)NCc2cccc(O)c2)cc(Cl)c1C(=O)N/C(=C\c1ccc2[nH]nnc2c1)C(=O)O [Example 291, (Z)-3-(1H-Benzotriazol-5-yl)-2-[[2-chloro-4-[[(3-hydroxybenzyl)amino]carbonyl]-6-methylbenzoyl]amino]propenoic Acid]	515	
50.6	O=C(O)/C(=C/c1nc2ccccc2s1)NC(=O)c1ccc(C(=O)NCc2cccc(O)c2)cc1Br [Example 276]		
2.15	Cc1cc(C(=O)N[C@H](C)c2cccc3ccccc23)cc(C)c1C(=O)N/C(=C\c1ccc2[nH]nnc2c1)C(=O)O [Example 239]		
8.2	O=C(O)/C(=C/c1ccsc1)NC(=O)c1ccc(C(=O)NCc2cccc(O)c2)cc1Br [Example 313]		
0.74	O=C(O)/C(=C/c1ccc2[nH]nnc2c1)NC(=O)c1ccc(C(=O)NCc2cccc3[nH]ccc23)cc1Br [Example 286]	1200	
20.3	O=C(O)/C(=C/c1cccc2ccccc12)NC(=O)c1ccc(C(=O)NCc2cccc(O)c2)cc1Br [Example 270]	20000	
4.46	O=C(O)/C(=C/c1ccccc1)NC(=O)c1ccc(C(=O)NCc2cccc(O)c2)cc1Cl [Example 282]	1900	
56.1	O=C(O)/C(=C/c1ccccn1)NC(=O)c1ccc(C(=O)NCc2cccc3[nH]ccc23)cc1Cl [Example 310]		
1.4	O=C(O)/C(=C/c1ccccc1O)NC(=O)c1ccc(C(=O)NCc2cccc(O)c2)cc1Br [Example 272]	1500	
123	O=C(O)/C(=C/c1cnc(-c2cccs2)s1)NC(=O)c1ccc(C(=O)NCc2cccc(O)c2)cc1Br [Example 262]		
1.12	Cc1cc(C(=O)NCc2cccc(O)c2)cc(C)c1C(=O)N/C(=C\c1ccc2[nH]nnc2c1)C(=O)O [Example 326, (Z)-3-(1H-Benzotriazol-5-yl)-2-[[4-[[(3-hydroxybenzyl)amino]carbonyl]-2,6-dimethylbenzoyl]amino]propenoic Acid]		
40.9	CC/C=C(\NC(=O)c1ccc(C(=O)NCc2cccc(O)c2)cc1Br)C(=O)O [Example 289]		
20.4	C[C@@H](NC(=O)c1ccc(C(=O)N/C(=C\c2cccs2)C(=O)O)c(Cl)c1)c1cccc2ccccc12 [Example 327]		
42.5	O=C(O)/C(=C/c1ccc2ccccc2n1)NC(=O)c1ccc(C(=O)NCc2cccc(O)c2)cc1Br [Example 275]		
56.3	O=C(O)/C(=C/c1cccs1)NC(=O)c1ccc(C(=O)NCc2cccc3[nH]ccc23)cc1Cl [Example 308]		
50.8	O=C(O)/C(=C/c1cnc2ccccc2c1)NC(=O)c1ccc(C(=O)NCc2ccc3cc[nH]c3c2)cc1Cl [Example 324, (Z)-2-[[2-Chloro-4-[[[(1N-indol-6-yl)methyl]amino]carbonyl]benzoyl]amino]-3-(quinolin-3-yl)propenoic Acid]		
101	O=C(O)/C(=C/c1nc(C(F)(F)F)cs1)NC(=O)c1ccc(C(=O)NCc2cccc(O)c2)cc1Br [Example 257]		
201	Cn1c(/C=C(\NC(=O)c2ccc(C(=O)NCc3cccc(O)c3)cc2Br)C(=O)O)nc2ccccc21 [Example 288]		
